The values below come from publication PMC12297138, “Screening and Identification of Multiple Peptides Homologous to the Fusion Glycoprotein Gc of Schmallenberg Virus Able to Inhibit Viral Infection” (Transboundary and Emerging Diseases, 2025).

One may read the IC50 as the point on the concentration scale where inhibition reaches its midpoint. Usually CC50 stands for the concentration that lowers cell viability or growth by half. Low values mean harm at low concentration, high ones better tolerance by the cells.

Data set [1] concerns Schmallenberg virus (SBV). The data set can be described thus: Cotreatment assay (plaque reduction). As to conditions: for percentage of viral inhibition at 100 μM (library screening): cotreatment, peptide 100 μM, SBV on BHK-21 cells, threshold 50% inhibition; for IC50: peptide + SBV (MOI 0.01) together on BHK-21 cells 2 h 37°C, plaques after 72 h, triplicate; for SI, Cotreatment: selectivity index CC50 value/IC50 value. Format: cell-based. From the text: Baby Hamster Kidney cells (BHK-21) (ATCC CCL-10, Manassas, VA, USA), Madin–Darby bovine kidney (MDBK, ATCC CCL-22), and Vero/hSLAM cells (ECACC 04091501, Porton Down, United Kingdom) were cultivated in Dulbecco's modified Eagle's medium (DMEM, Microtech, Naples, Italy) supplemented with 10% fetal bovine serum (FBS) (Microtech). Viruses were kindly provided by Professor Giuseppe Iovane (University Federico II, Naples, Italy). Cells were infected with a multiplicity of infection (MOI) of 0.01, and we assessed viral titers through plaque assays.
SBV titration was performed on BHK-21 cells. Briefly, BHK-21 cell monolayers in 12-well cell culture plates were infected with SBV dilutions. After 1 h of incubation, viral inocula were removed and a mixture of DMEM 10% FBS and 3% carboxymethyl cellulose (CMC) was added to all wells. After incubation for 72 h, cells were fixed with 4% formaldehyde solution and stained with 0,5% crystal violet (Sigma-Aldrich, St. Louis, MO, USA). Plaques were scored and stock virus titration was calculated as plaque forming unit (PFU)/ml.
Peptides were dissolved in water. To assess the impact of these peptides on inhibiting SBV infectivity, a very general assay (cotreatment) was performed by treating cells (5 × 10^5 cells/well) with peptides at 200, 100, 50, 25, 12.5, 6.25, and 1 μM and incubating them with the viral inoculum (MOI of 0.01) for 2 h at 37°C. To effectively inactivate nonpenetrated viruses, we treated cells with citrate buffer (pH 3.0) and then cultured BHK-21 for 72 h at 37°C/5% CO2 in DMEM enriched with 10% FBS and CMC. The monolayers were finally fixed and stained, and the plaque number was scored. The percentage of inhibition was calculated in comparison to the control group (cell infected and treated with no peptide).

Data set [2] concerns Schmallenberg virus (SBV). Briefly: Virus pretreatment assay (plaque reduction). Format: cell-based. The following applies: for IC50: peptide + SBV (MOI 0.1) 1 h 37°C, then diluted on BHK-21 cells (final MOI 0.01), plaques after 72 h; for SI, Virus pretreatment: selectivity index CC50 value/IC50 value. The protocol: (§1) Peptide concentrations are the same as used in the initial cotreatment assay. Virus pretreatment assay: peptides were added to the virus (MOI of 0.1) for 1 h at 37°C. Following the incubation period, the mixture of virus and peptide was diluted on cells for 2 h: this process allowed the peptides to achieve a nonactive concentration while ensuring that the virus remained at an optimal final MOI of 0.01. Then, the cells underwent a 72-h incubation with CMC. Cell pretreatment: Precooled cells were treated with the peptides for 1 h, followed by the incubation of the viral inoculum (MOI of 0.01) for 2 hr at 37°C. At the end, cells were overlaid with CMC for 72 hr at 37°C. Posttreatment: Cells were treated with peptide following the viral infection (MOI of 0.01 pfu/mL) for 2 h at 37°C; then, CMC was added for 72 h at 37°C. For each treatment, the IC50, which is the peptide concentration resulting in a 50% reduction of SBV infectivity, was calculated.

Data set [3] concerns Schmallenberg virus (SBV). Briefly: Attachment assay (temperature shift). Format: cell-based. The following applies: for IC50: BHK-21 cells, SBV MOI 0.01 and peptide simultaneously 2 h at 4°C, plaques after 72 h at 37°C; for SI, Attachment: selectivity index CC50 value/IC50 value. The protocol: (§2) Two additional assays were performed. Peptide concentrations are the same as those used in the other treatments. Attachment assay: Cells were infected with the virus (MOI 0.01) and simultaneously each peptide was inoculated for 2 h at 4°C; then, cells were left in CMC for 72 h at 37°C. Entry assay: BHK-21 monolayer was infected with SBV (MOI 0.01) for 2 h at 4°C, followed by the treatment with each peptide for 1 h at 37°C; finally, CMC was added on cells. Similarly to other assays, at the end, viral plaques were observed.

Data set [4] relates to Schmallenberg virus (SBV). The data set can be described thus: Entry assay (temperature shift). The class given is cell-based. As to conditions: for IC50: BHK-21 infected with SBV MOI 0.01 2 h at 4°C, then peptide 1 h at 37°C, plaque count; for SI, Entry: selectivity index CC50 value/IC50 value. The protocol:
as §2

In data set [5] the test system is Schmallenberg virus (SBV). The data set can be described thus: Cell pretreatment assay (plaque reduction). The class given is cell-based. The following applies: precooled BHK-21 cells treated with peptide 1 h, then SBV MOI 0.01 for 2 h 37°C; plaques after 72 h. Here is the method:
as §1

Data set [6] relates to Schmallenberg virus (SBV). Briefly: Posttreatment assay (plaque reduction). The following applies: BHK-21 cells treated with peptide after SBV infection (MOI 0.01, 2 h 37°C); plaques after 72 h. The class given is cell-based. Here is the method: as §1
The subject of the next data set is BHK-21 cells. The data set can be described thus: MTT cytotoxicity assay. Format: cell-based, Hamster. The following applies: 24 h treatment, peptides 1-200 µM, read at 570 nm, triplicate. Here is the method: Peptide cytotoxicity was measured by 3- (4, 5-dimethylthiazol-2-yl)-2, 5-diphenyltetrazolium bromide (MTT) assay according to manufacturer's instructions (Sigma-Aldrich, St. Louis, Missouri, United States). BHK-21 cells (4 × 10^4 cells/well) were treated with peptides at different concentrations ranging from 1 µM to 200 and, after 24 h, 100 μL of the MTT solution (5 mg/mL) was incubated for 3 h at 37°C. Then, we used DMSO (Sigma Aldrich) to dissolve tetrazolium salts under agitation. Cytotoxicity was analyzed at 570 nm, and cell viability was measured against control cells—those that received no treatment. At the end, the 50% cytotoxic concentration (CC50) was determined using GraphPad Prism software (GraphPad Software, San Diego, CA, USA).
(In general: Tetrazolium dyes change colour on reduction, which living cells bring about.)

As to `CC[C@H](C)[C@H](NC(=O)[C@H](CC(=O)O)NC(=O)[C@H](CO)NC(=O)[C@H](CCC(N)=O)NC(=O)[C@H](CC(C)C)NC(=O)[C@H](C)NC(=O)[C@H](C)NC(=O)[C@@H](NC(=O)[C@H](Cc1ccc(O)cc1)NC(=O)[C@H](CC(N)=O)NC(=O)[C@H](CCC(=O)O)NC(=O)[C@@H](NC(=O)[C@H](CC(=O)O)NC(=O)[C@@H]1CCCN1C(=O)[C@H](Cc1c[nH]cn1)NC(=O)[C@@H](N)CC(N)=O)[C@@H](C)CC)[C@@H](C)CC)C(=O)N[C@@H](C)C(=O)N[C@@H](CC(N)=O)C(=O)N[C@@H](CC(=O)O)C(=O)N[C@@H](CC(C)C)C(=O)N[C@H](C(=O)N[C@@H](CCSC)C(=O)N[C@@H](Cc1c[nH]cn1)C(=O)N[C@@H](Cc1ccc(O)cc1)C(=O)N[C@@H](Cc1ccccc1)C(=O)O)[C@@H](C)O` [Gc30], the “percentage of viral inhibition at 100 μM (library screening)” value (from here on “percentage of viral inhibition at 100 μM”) in data set [1] is on record as “greater than 50%”. The IC50 in data set [1] came out at 12.5 µM; in data set [2], 20 µM; in data set [3], 50 µM; in data set [4], 20 µM.
Take `CC[C@H](C)[C@H](NC(=O)[C@@H](NC(=O)[C@H](CC(=O)O)NC(=O)[C@H](CCCCN)NC(=O)[C@H](CCCNC(=N)N)NC(=O)[C@H](CC(N)=O)NC(=O)[C@@H](N)Cc1ccccc1)C(C)C)C(=O)N[C@@H](CC(C)C)C(=O)N[C@@H](CCCNC(=N)N)C(=O)N[C@@H](CCCNC(=N)N)C(=O)N[C@@H](CS)C(=O)N[C@@H](Cc1ccccc1)C(=O)N[C@@H](CC(=O)O)C(=O)N[C@@H](CC(N)=O)C(=O)N[C@@H](CO)C(=O)N[C@@H](Cc1ccc(O)cc1)C(=O)N[C@@H](CCC(N)=O)C(=O)N[C@@H](CO)C(=O)N[C@@H](CS)C(=O)N[C@@H](CC(C)C)C(=O)N[C@@H](CC(C)C)C(=O)N[C@@H](CC(C)C)C(=O)N[C@@H](CCC(=O)O)C(=O)N[C@@H](CCC(N)=O)C(=O)N[C@@H](CC(=O)O)C(=O)O` [Gc48]: the “SI, Cotreatment” value in data set [1] is 2. The IC50 in data set [5] and in data set [6] was more than 100 µM each time. Moreover, the “SI, Virus pretreatment” value in data set [2] came to 4. Further, the “SI, Attachment” value in data set [3] was determined as 2. Besides, the “SI, Entry” value in data set [4] was determined as 4.
`CC[C@H](C)[C@H](NC(=O)[C@@H](NC(=O)[C@H](CC(C)C)NC(=O)[C@@H](NC(=O)[C@H](CC(N)=O)NC(=O)[C@H](CC(=O)O)NC(=O)[C@H](CCC(N)=O)NC(=O)[C@H](CCC(=O)O)NC(=O)[C@H](CC(C)C)NC(=O)[C@H](CC(C)C)NC(=O)[C@H](CC(C)C)NC(=O)[C@H](CS)NC(=O)[C@H](CO)NC(=O)[C@H](CCC(N)=O)NC(=O)[C@@H](N)Cc1ccc(O)cc1)[C@@H](C)O)[C@@H](C)O)C(=O)N[C@@H](C)C(=O)N[C@@H](CO)C(=O)N[C@H](C(=O)N[C@@H](CO)C(=O)N[C@@H](Cc1c[nH]cn1)C(=O)N[C@@H](CCSC)C(=O)N[C@@H](CCC(=O)O)C(=O)N[C@H](C(=O)N[C@@H](Cc1c[nH]cn1)C(=O)N[C@@H](CCCCN)C(=O)O)C(C)C)[C@@H](C)O` [Gc49]: the “percentage of viral inhibition at 100 μM” value in data set [1] is recorded as “greater than 50%”. Further, the IC50 in data set [1] stood at 10 µM; in data set [2] it was 10 µM; in data set [3], 25 µM; in data set [4], 20 µM. The compound also had a CC50 with BHK-21 cells of 200 µM.
For the compound `CC[C@H](C)[C@H](NC(=O)[C@H](CO)NC(=O)[C@@H](N)Cc1ccc(O)cc1)C(=O)N[C@@H](CCCCN)C(=O)N[C@@H](CC(C)C)C(=O)N[C@@H](CC(N)=O)C(=O)N[C@@H](CS)C(=O)N1CCC[C@H]1C(=O)N[C@@H](CC(C)C)C(=O)N[C@@H](C)C(=O)N[C@H](C(=O)N[C@@H](CCC(=O)O)C(=O)N[C@H](C(=O)N[C@H](C(=O)N[C@@H](CO)C(=O)N[C@H](C(=O)N[C@@H](CO)C(=O)N[C@H](C(=O)N[C@@H](CS)C(=O)N[C@@H](CO)C(=O)N[C@@H](C)C(=O)N[C@@H](CO)C(=O)N[C@@H](C)C(=O)N[C@@H](Cc1ccc(O)cc1)C(=O)N[C@H](C(=O)O)[C@@H](C)O)C(C)C)C(C)C)C(C)C)[C@@H](C)O)[C@@H](C)O` [Gc56], the “percentage of viral inhibition at 100 μM” value in data set [1] is “greater than 50%”. For the same compound, the concentration for half-maximal inhibition (IC50) in data set [1] turned out to be 100 µM; in data set [2], 40 µM; in data set [3], 50 µM; in data set [4], 40 µM. The compound also returned a CC50 in the data set on BHK-21 cells of 200 µM.
As to `CC[C@H](C)[C@H](NC(=O)CNC(=O)[C@H](CCC(=O)O)NC(=O)[C@H](CCCCN)NC(=O)[C@H](Cc1ccc(O)cc1)NC(=O)[C@@H](NC(=O)[C@H](CCCNC(=N)N)NC(=O)[C@H](CS)NC(=O)[C@H](CC(C)C)NC(=O)[C@H](Cc1c[nH]c2ccccc12)NC(=O)[C@@H](NC(=O)[C@H](CO)NC(=O)[C@H](CS)NC(=O)[C@H](CCCCN)NC(=O)[C@H](CCCCN)NC(=O)[C@H](CC(=O)O)NC(=O)[C@H](Cc1c[nH]cn1)NC(=O)[C@H](CCC(N)=O)NC(=O)[C@H](CCC(=O)O)NC(=O)[C@@H](NC(=O)[C@@H](N)Cc1ccc(O)cc1)[C@@H](C)CC)[C@@H](C)O)C(C)C)C(=O)N[C@@H](CO)C(=O)N[C@H](C(=O)N[C@H](C(=O)N[C@@H](Cc1ccccc1)C(=O)O)[C@@H](C)CC)C(C)C` [Gc59], the “SI, Cotreatment” value in data set [1] is listed as 4. Further, the concentration for half-maximal inhibition (IC50) in data set [5] and in data set [6] was more than 100 µM each time. Besides, in data set [2], the “SI, Virus pretreatment” value is reported as 5. For the same compound, the “SI, Attachment” value in data set [3] is on record as 3.6. Further, the “SI, Entry” value in data set [4] is on record as 5.7.
